The subject of experiment [1] is purified rat T cells. In words: Concanavalin A activated T-cell proliferation assay ([3H] thymidine uptake). The following applies: 96 h, @ 1 mM. The class given is cell-based. As to the method: Compounds of Formula I (above), based on an ethyl dimethylaminopropylurea (1) parent structure, have been discovered as active agents against a modified Concanavalin A activated T-cell proliferation assay using purified rat T-cells. These cells were incubated for 4 days and pulsed with [^3H] thymidine for the last 16 hrs of incubation. [^3H] Thymidine uptake was measured as the mean counts per minute (cpm) of duplicate experimental cultures. The compounds of the present invention were discovered by screening a compound library. (directed analogs of parent compound 1) using an assay designed to identify inhibitors of Concanavalin A stimulated T-cell proliferation. Normal dermal fibroblasts and kidney epithelial cell toxicity assays were run on active compounds to eliminate non-selective cytotoxic compounds.

In experiment [2] the test system is Autoimmune Encephalomyelitis (EAE). The experiment in a line: Autoimmune Encephalomyelitis (EAE) model, PLP 139-151 immunized mice. The class given is in vivo, SJL/J mice. The following applies: 25 mg/kg daily day 1 to 16, FIG. 1.
Experiment [3] deals with Septic Shock, Lipopolysaccharide. In words: Septic Shock, Lipopolysaccharide plus galactosamine in mice. The class given is in vivo, C57/BL mice. The settings on record: 1 mg/kg PO dose. As to the method: Groups of 4 or 6 C57/BL mice weighing 18–20g were used. […] The blank control group was only applied 10% cremophor/10% ethanol IP and without LPS challenge. Mortality is recorded every 12 hours after challenge over a 3-day period. Protection of mortality by 50 percent or more (≧50%) indicates significant activity.

The test system of experiment [4] is Distal colitis induced by DNBS. In words: Inflammatory Bowel Disease: DNBS-induced distal colitis in rats. The settings on record: rat. It is filed as in vivo. The method, then: CM Hogaboam et al., Eur. J. Pharmacol.; 309; 261 (1996) Groups of 3 derived-male, overnight-fasted rats weighing 150±10 g are used. Distal colitis is induced by intra-colonic instillation of 0.5 ml/rat of DNBS (2,4-dinitrobenzene sulfonic acid, 60 mg/ml in ethanol 30%) after which air (2 ml) is gently injected through the cannula to ensure that the solution remains in the colon. […] The animals are sacrificed 24 hours after the final dose of test compound administration and each colon is removed and weighed.

Setting [5] is: Table 1, read-out: Thymidine Uptake (% Reduction @ 1 mM).
Where [6] appears, read: Table 2, read-out: Thymidine Uptake (% Reduction @ 1 mM).
Setting [7] is: Table 3, read-out: Thymidine Uptake (% Reduction @ 1 mM).

Like-named read-outs stand apart in the source and are kept apart here.

In the case of `CCNC(=O)NCc1ccco1` [Compound 2], the inhibition at 1000 µM in experiment [1] (setting [5]) came out at 16%.

With `CCNC(=O)NCC1CCCO1` (centres unmarked) [Compound 3], the inhibition at 1000 µM in experiment [1] (setting [5]) worked out at 26%.

As for `CCNC(=O)NCC(c1ccccc1)c1ccccc1` [Compound 4], the inhibition at 1000 µM in experiment [1] (setting [5]) was 26%.

In the case of `CCNC(=O)NCCc1cccc(Cl)c1` [Compound 5], in experiment [1] (setting [5]), the inhibition at 1000 µM stood at 24%.

For the molecule `CCNC(=O)NCCN1CCCCC1` [Compound 6], in experiment [1] (setting [5]), the inhibition at 1000 µM was determined as 33%.

As for `CCNC(=O)Nc1cccc2nsnc12` [Compound 7], the inhibition at 1000 µM in experiment [1] (setting [5]) came out at 25%.

Consider `CCNC(=O)Nc1nc2ccccc2s1` [Compound 8], for which the inhibition at 1000 µM in experiment [1] (setting [5]) is 22%.

Turning to `CCNC(=O)NN1CCCC1` [Compound 9], the inhibition at 1000 µM in experiment [1] (setting [5]) worked out at 16%.

Regarding `CCNC(=O)Nc1cccc(OC(F)(F)F)c1` [Compound 10], in experiment [1] (setting [5]), the inhibition at 1000 µM came to 30%.

Regarding `CCNC(=O)Nc1cc[nH]n1` [Compound 11], in experiment [1] (setting [5]), the inhibition at 1000 µM came out at 35%.

Turning to `CCNC(=O)NC(C)(C)CC(C)=O` [Compound 12], the inhibition at 1000 µM in experiment [1] (setting [5]) was found to be 35%.

Consider `CCNC(=O)NC1CCN(C(=O)OCC)CC1` [Compound 13], for which, in experiment [1] (setting [5]), the inhibition at 1000 µM turned out to be 35%.

On to `CCNC(=O)Nc1cccc(S(N)(=O)=O)c1` [Compound 14], for which, in experiment [1] (setting [5]), the inhibition at 1000 µM came to 18%.

For the molecule `CCNC(=O)Nc1c(F)c(F)c(C#N)c(F)c1F` [Compound 15], the inhibition at 1000 µM in experiment [1] (setting [5]) amounted to 26%.

With `CCNC(=O)Nc1ccc(C(N)=O)cc1` [Compound 16], the inhibition at 1000 µM in experiment [1] (setting [5]) is 27%.

Turning to `CCCNCCCNC(=O)NCC` [Compound 17], in experiment [1] (setting [5]), the inhibition at 1000 µM worked out at 25%.

Take `CCNC(=O)NOC(C)(C)C` [Compound 18]: the inhibition at 1000 µM in experiment [1] (setting [5]) was found to be 25%.

With `CCNC(=O)Nc1nc2cc(C)c(C)cc2[nH]1` [Compound 19, 1-(5,6-dimethyl-1H-benzoimidazol-2-yl)-3-ethyl urea], the inhibition at 1000 µM in experiment [1] (setting [5]) is 77%.

In the case of `CCNC(=O)Nc1cnccn1` [Compound 20], the inhibition at 1000 µM in experiment [1] (setting [5]) is 55%.

`CCNC(=O)Nc1ncnc2[nH]ncc12` [Compound 21]: in experiment [1] (setting [5]), the inhibition at 1000 µM was found to be 95%.

For `CCNC(=O)Nn1cnnc1` [Compound 22], the inhibition at 1000 µM in experiment [1] (setting [5]) amounted to 19%.

In the case of `CCNC(=O)NC(C(=O)OCC)C(=O)OCC` [Compound 23], the inhibition at 1000 µM in experiment [1] (setting [5]) came out at 12%.

As to `C=CCNC(=O)NCC` [Compound 24], the inhibition at 1000 µM in experiment [1] (setting [5]) turned out to be 18%.

Regarding `CCNC(=O)NCC(C)(C)C` [Compound 25], the inhibition at 1000 µM in experiment [1] (setting [5]) is 60%.

As for `CCNC(=O)NCCCN1CCSCC1` [Compound 26], the inhibition at 1000 µM in experiment [1] (setting [6]) came out at 16%.

For the molecule `CCNC(=O)NCCCN1CC(C)OC(C)C1` (centres unmarked) [Compound 28], the inhibition at 1000 µM in experiment [1] (setting [6]) was 13%.

As to `CCCN(CCCNC(=O)NCC)CC1CC1` [Compound 29], in experiment [1] (setting [6]), the inhibition at 1000 µM was 23%.

Turning to `CCNC(=O)NCCCN(CCO)Cc1ccccc1` [Compound 30], the inhibition at 1000 µM in experiment [1] (setting [6]) turned out to be 12%.

Consider `CCNC(=O)NCCCN1CCN(c2cccc(C)c2C)CC1` [Compound 31, 1-{3′-[4-(2,3-xylyl)-piperazin-1-yl]-propyl}-3-ethyl urea], for which, in experiment [1] (setting [6]), the inhibition at 1000 µM is 21%.

For the molecule `CCNC(=O)NCCCN1CCN(c2ncc(C(F)(F)F)cc2Cl)CC1` [Compound 32], the inhibition at 1000 µM in experiment [1] (setting [6]) was determined as 27%.

Turning to `CCNC(=O)NCCCN1CCC(Cc2ccccc2)CC1` [Compound 33], in experiment [1] (setting [6]), the inhibition at 1000 µM was determined as 17%.

On to `CCNC(=O)NCCCN1CCc2ccccc2C1Cc1ccccc1` (centres unmarked) [Compound 34], for which the inhibition at 1000 µM in experiment [1] (setting [6]) is 12%.

In the case of `CCNC(=O)NCCCN1CCC(C(=O)c2ccc(Cl)cc2)CC1` [Compound 35], the inhibition at 1000 µM in experiment [1] (setting [6]) is 55%.

Take `CCNC(=O)NCCCN1CCN(c2cc(Cl)ccc2C)CC1` [Compound 36]: the inhibition at 1000 µM in experiment [1] (setting [6]) was determined as 18%.

In the case of `CCNC(=O)NCCCN1CCN(C/C=C\c2ccccc2)CC1` [Compound 37], the inhibition at 1000 µM in experiment [1] (setting [6]) was 23%.

For `CCNC(=O)NCCCN1CCN(c2ccccc2)C(C)C1` (centres unmarked) [Compound 38], the inhibition at 1000 µM in experiment [1] (setting [6]) was found to be 13%.

Regarding `CCNC(=O)NCCCN1CCN(c2cc(C)ccc2C)CC1` [Compound 39], the inhibition at 1000 µM in experiment [1] (setting [6]) was found to be 23%.

With `CN(C)CCCNC(=O)NCC12CCC3CC(CC1C3)C2` (centres unmarked) [Compound 40], in experiment [1] (setting [7]), the inhibition at 1000 µM is 20%.

Take `CN(C)CCCNC(=O)NCCCCO` [Compound 41]: the inhibition at 1000 µM in experiment [1] (setting [7]) is 12%.

Consider `COc1ccccc1CNC(=O)NCCCN(C)C` [Compound 43], for which the inhibition at 1000 µM in experiment [1] (setting [7]) was found to be 24%.

For `CN(C)CCCNC(=O)NCCC(c1ccccc1)c1ccccc1` [Compound 44], the inhibition at 1000 µM in experiment [1] (setting [7]) was 21%.

`CN(C)CCCNC(=O)NC1Cc2ccccc2C1` [Compound 45]: the inhibition at 1000 µM in experiment [1] (setting [7]) was determined as 20%.

For the molecule `CN(C)CCCNC(=O)NCc1ccccc1Cl` [Compound 46], the inhibition at 1000 µM in experiment [1] (setting [7]) was found to be 21%.

In the case of `COc1ccc(CNC(=O)NCCCN(C)C)c(OC)c1` [Compound 47], the inhibition at 1000 µM in experiment [1] (setting [7]) turned out to be 20%.

As for `CN(C)CCCNC(=O)NCCc1cccc(Cl)c1` [Compound 48], in experiment [1] (setting [7]), the inhibition at 1000 µM was determined as 26%.

Take `CN(C)CCCNC(=O)Nc1nccc2ccccc12` [Compound 49]: the inhibition at 1000 µM in experiment [1] (setting [7]) amounted to 36%.

Consider `CN(C)CCCNC(=O)Nc1ncc([N+](=O)[O-])s1` [Compound 50], for which, in experiment [1] (setting [7]), the inhibition at 1000 µM was found to be 22%.

For `CN(C)CCCNC(=O)Nc1ncnc2[nH]ncc12` [Compound 51], the inhibition at 1000 µM in experiment [1] (setting [7]) is 86%.

On to `CN(C)CCCNC(=O)Nc1nnn[nH]1` [Compound 52], for which, in experiment [1] (setting [7]), the inhibition at 1000 µM was 14%.

Consider `COCCCNC(=O)NCCCN(C)C` [Compound 53], for which the inhibition at 1000 µM in experiment [1] (setting [7]) was 26%.

Consider `CN(C)CCCNC(=O)NCc1csc2ccccc12` [Compound 54], for which the inhibition at 1000 µM in experiment [1] (setting [7]) is 16%.

On to `CN(C)CCCNC(=O)NCCc1cccs1` [Compound 55], for which, in experiment [1] (setting [7]), the inhibition at 1000 µM stood at 17%.

Take `CCNC(=O)NCCCN1CCN(c2cccc(C)c2C)CC1` [Compound 57, 1-{3′-[4-(2,3-xylyl)-piperazin-1-yl]-propyl}-3-ethyl urea]: in experiment [2], the “effect on disease onset (ADSS)” value is “had an effect on disease onset” and the “effect on maximum severity (ADSS)” value was “not on maximum severity”.

As to `CC(=O)OCC(=O)[C@@]1(O)[C@H](C)C[C@H]2[C@@H]3CCC4=CC(=O)C=C[C@]4(C)[C@@]3(F)[C@@H](O)C[C@@]21C` [Dexamethasone-21-acetate, reference compound], in experiment [3], the “Inhibition (protection of mortality)” value was found to be 100%. Further, the “Total Deaths” value in experiment [3] (N 4, 3-day period) was 0.

Take `O=C(O)c1cc(/N=N/c2ccc(S(=O)(=O)Nc3ccccn3)cc2)ccc1O` [Sulfasalazine, reference compound]: the “Ave. (colon to 100 g body weight ratio)” value in experiment [4] (PO 300 mg/kg × 7) is recorded as 0.551. Besides, in experiment [4] (PO × 7), the “Inhibition (of net increase of colon to 100 g body weight ratio, relative to vehicle with DNBS)” value was 41% and the “Net Inc. (net increase of colon to 100 g body weight ratio)” value is listed as 0.254.

For the origin of these results see patent US7186725B2, “Anti-inflammatory compositions and methods” (Genzyme Corporation, priority 2003, dated 2007).
